Data reported in patent US8501950B2, “N-cyanoalkylanthranilamides as insecticides” (Syngenta Crop Protection LLC, priority 2006, dated 2013).
Like-named read-outs stand apart in the source and are kept apart here.

How the values were obtained:
[1] = system: Spodoptera littoralis (Egyptian Cotton Leafworm); test: Example B1: activity against Spodoptera littoralis, sprayed cotton leaf discs, L1 larvae; type: in vivo; settings: foliar, 72 h
Source text: Activity Against Spodoptera littoralis (Egyptian Cotton Leafworm)
Cotton leaf discs are placed on agar in a 24-well microtiter plate and sprayed with test solutions. After drying, the leaf discs are infested with 5 L1 larvae. The samples are checked for mortality, repellent effect, feeding behaviour, and growth inhibition 3 days after treatment (DAT).

[2] = system: Plutella xvlostella (Diamond Back Moth); test: Example B3: activity against Plutella xylostella, L2 larvae on artificial diet; type: in vivo; settings: 120 h
Method: Activity Against Plutella xvlostella (Diamond Back Moth)
24-well microtiter plate (MTP) with artificial diet is sprayed with test solutions. After drying, the MTP's are infested with larvae (L2)(10-15 per well). After an incubation period of 5 days, samples are checked for larval mortality, antifeedant and growth inhibition.

[3] = system: Heliothis virescens (Tobacco Budworm); test: Example B2: activity against Heliothis virescens, eggs on artificial diet; type: in vivo; settings: 96 h
Method: Activity Against Heliothis virescens (Tobacco Budworm)
Eggs (0-24 h old) are placed in 24-well microtiter plate on artificial diet and sprayed with test solutions. After an incubation period of 4 days, samples are checked for egg mortality, larval mortality, and growth inhibition.

[4] = system: Spodoptera littoralis (Cotton Leafworm); test: Example B9: systemic insecticide test for Spodoptera littoralis, maize seedlings at 12.5 ppm; type: in vivo
Method: (§1) Systemic Insecticide Test for Spodoptera littoralis (Cotton Leafworm)
[…] Seedlings are allowed to grow for six days. Subsequently leaves are cut and placed in a Petri dish (5 cm diameter), inoculated with twelve to fifteen 1st instar S. littoralis larvae and incubated for four days in a growth chamber (25° C., 50% r.h., 18:6 L:D photo period). Number of alive insects are counted and percentage of dead calculated. Tests were conducted with one replicate.

[5] = system: Frankliniella occidentalis (Western Flower Thrips); test: Example B12: activity against Frankliniella occidentalis, sprayed bean plants, comparison with prior art; type: in vivo; settings: for inhibition at 12.5 ppm / inhibition at 25 ppm / inhibition at 50 ppm: Frankliniella occidentalis, 288 h, reduction of treated population vs non treated, read-out: Activity (%) after 12 days
Method: Activity Against Frankliniella occidentalis (Western Flower Thrips)
Bean plants are treated in a spray chamber with diluted test solutions. After drying they are infested with mixed population. 12 days after the infestation, samples are checked for reduction of treated population and compared to the non treated population.

[6] = system: Spodoptera littoralis (Cotton Leafworm); test: Example B11: systemic insecticide test for Spodoptera littoralis, comparison with prior art; type: in vivo; settings: for mortality at 0.0125 ppm / mortality at 0.05 ppm: Spodoptera littoralis, 120 h, read-out: Mortality (%) after 5 days
Source text: as §1
[…] Seedlings are allowed to grow for six days. […] Number of alive insects are counted and percentage of dead calculated.

[7] = system: Cydia pomonella (Codling Moth); test: Example B10: activity against Cydia pomonella, sprayed diet cubes; type: in vivo; settings: 336 h
Method: Activity Against Cydia pomonella (Codling Moth)
Standard Cydia diet cubes (1.5 cm width) are pierced with a tooth-pick and are immersed in liquid paraffin (ca. 80° C.). After the paraffin coat has hardened, an aqueous emulsion containing 12.5 ppm of active ingredient is applied using a De Vilbis sprayer (25 ml, 1 bar). After the spray coating has dried, the cubes are put into plastic containers which are then populated with two freshly hatched Cydia pomonella (1st instar). The containers are then closed with a plastic cap. After 14 days incubation at 26° C. and 40-60% relative humidity, the survival rate of the caterpillars as well as their growth regulation is determined.

[8] = system: Myzus persicae (Green Peach Aphid); test: Example B6: activity against Myzus persicae (systemic), pea seedling roots in test solution; type: in vivo; settings: 144 h
Source text: Activity Against Myzus persicae (Green Peach Aphid): (Systemic)
Roots of pea seedlings, infested with an aphid population of mixed ages, are placed directly in the test solutions. 6 days after introduction, samples are checked for mortality and special effects on the plant.

[9] = system: Thrips tabaci (Onion Thrips); test: Example B7: activity against Thrips tabaci, sunflower leaf discs; type: in vivo; settings: foliar, 144 h
Method: Activity Against Thrips tabaci (Onion Thrips)
Sunflower leaf discs are placed on agar in a 24-well microtiter plate and sprayed with test solutions. After drying, the leaf discs are infested with a thrips population of mixed ages. After an incubation period of 6 days, samples are checked for mortality and special effects (e.g. phytotoxicity).

[10] = system: Diabrotica balteata (Corn Root Worm); test: Example B4: activity against Diabrotica balteata, L2 larvae on artificial diet; type: in vivo; settings: 120 h, 5 days incubation, read-out: activity (sentence prints only 'over 80%')
Method: Activity Against Diabrotica balteata (Corn Root Worm)
24-well microtiter plate (MTP) with artificial diet is sprayed with test solutions. After drying, the MTP's are infested with larvae (L2)(6-10 per well). After an incubation period of 5 days, samples are checked for larval mortality, antifeedant and growth inhibition.

[11] = system: Mvzus persicae (Green Peach Aphid); test: Example B5: activity against Myzus persicae (contact), sunflower leaf discs; type: in vivo; settings: foliar, 144 h
Method: Activity Against Mvzus persicae (Green Peach Aphid): (Contact)
Sunflower leaf discs are placed on agar in a 24-well microtiter plate and sprayed with test solutions. After drying, the leaf discs are infested with an aphid population of mixed ages. After an incubation period of 6 DAT, samples are checked for mortality and special effects (e.g. phytotoxicity).

[12] = system: Tetranychus urticae (Two-Spotted Spider Mite); test: Example B8: activity against Tetranychus urticae, bean leaf discs; type: in vivo
Source text: Activity Against Tetranychus urticae (Two-Spotted Spider Mite)
Bean leaf discs on agar in 24-well microtiter plates are sprayed with test solutions. After drying, the leaf discs are infested with mite populations of mixed ages. 8 days later, discs are checked for egg mortality, larval mortality, and adult mortality.

[13] = 200 ppm, 3 days after treatment, L1 larvae on cotton leaf discs, read-out: mortality
[14] = 200 ppm, 5 days incubation, L2 larvae, read-out: mortality
[15] = 200 ppm, 4 days incubation, eggs on artificial diet, read-out: mortality
[16] = 12.5 ppm in water, systemic via maize seedlings, one replicate, read-out: mortality

SMILES	mortality at 12.5 ppm [7] [%]	mortality at 200 ppm [1] [%]	mortality at 200 ppm [2] [%]	mortality at 200 ppm [3] [%]	mortality at 12.5 ppm [4] [%]	mortality at 200 ppm [9] [%]	pest or weed control at 200 ppm [10] [%]	other results
Cc1cc(Cl)cc(C(=O)NC(C)(C#N)C2CC2)c1NC(=O)c1cc(OC(F)F)nn1-c1ncccc1Cl (stereo not drawn)								melting point: 197 to 198 °C
COc1cc(C(=O)Nc2c(C)cc(I)cc2C(=O)NC(C)(C#N)C2CC2)n(-c2ncccc2Cl)n1 (stereo not drawn) [Compound T1.1.111]								mortality at 200 ppm [1, 13]: > 80%; mortality at 200 ppm [2, 14]: > 80%; mortality at 200 ppm [3, 15]: > 80%; mortality at 12.5 ppm [4, 16]: > 80%
Cc1cc(Cl)cc(C(=O)NC(C#N)C2CC2)c1NC(=O)c1cc(C(F)(F)F)nn1-c1ncccc1Cl (stereo not drawn) [A.1.346, reference compound]								inhibition at 12.5 ppm [5]: 0%; inhibition at 25 ppm [5]: 0%; inhibition at 50 ppm [5]: 0%; mortality at 0.0125 ppm [6]: 0%; mortality at 0.05 ppm [6]: 100%
Cc1cc(Cl)cc(C(=O)NC(C)(C#N)C2CC2)c1NC(=O)c1cc(Br)nn1-c1ncccc1Cl (stereo not drawn) [Compound T1.1.50]	> 80	> 80	> 80	> 80	> 80	> 80	> 80	mortality at 12.5 ppm [8]: > 80%
Cc1cc(Cl)cc(C(=O)NC(C)(C#N)C2CC2)c1NC(=O)c1cc(Cl)nn1-c1ncccc1Cl (stereo not drawn) [Compound T1.1.51]	> 80	> 80	> 80	> 80	> 80	> 80	> 80	
Cc1cc(Cl)cc(C(=O)NC(C)(C#N)C2CC2)c1NC(=O)c1cc(C(F)F)nn1-c1ncccc1Cl (stereo not drawn) [Compound T1.1.52]	> 80	> 80	> 80	> 80	> 80	> 80	> 80	mortality at 12.5 ppm [8]: > 80%; mortality at 200 ppm [11]: > 80%
Cc1cc(Cl)cc(C(=O)NC(C)(C#N)C2CC2)c1NC(=O)c1cc(C(F)(F)F)nn1-c1ncccc1Cl (single isomer, unassigned) [Compound T1.1.49a]								mortality at 12.5 ppm ([7]; 12.5 ppm, 14 days incubation at 26° C., read-out: mortality): > 80%; mortality at 200 ppm [1, 13]: > 80%; mortality at 200 ppm [2, 14]: > 80%; mortality at 200 ppm [3, 15]: > 80%; mortality at 12.5 ppm [4, 16]: > 80%; mortality at 200 ppm ([9]; 200 ppm, 6 days incubation, mixed ages, read-out: mortality): > 80%
Cc1cc(Cl)cc(C(=O)NC(C)(C#N)C2CC2)c1NC(=O)c1cc(C(F)(F)F)nn1-c1ncccc1Cl (stereo not drawn) [Compound T1.1.49, 2-(3-chloro-pyridin-2-yl)-5-trifluoromethyl-2H-pyrazole-3-carboxylic acid {4-chloro-2-[(cyano-cyclopropyl-methyl-methyl)-carbamoyl]-6-methyl-phenyl}-amide]	> 80	> 80	> 80	> 80	> 80	> 80	> 80	inhibition at 12.5 ppm [5]: 75%; inhibition at 25 ppm [5]: 85%; inhibition at 50 ppm [5]: 90%; insecticidal action compared with the compound from the state of the art (A.1.346) ([5]; Table B12, 50, 25 and 12.5 ppm): substantially better insecticidal action; mortality at 0.0125 ppm [6]: 93%; mortality at 0.05 ppm [6]: 100%; insecticidal action compared with the compound from the state of the art (A.1.346) ([6]; Table B11): substantially better insecticidal action; mortality at 200 ppm [11]: > 80%
Cc1cc(I)cc(C(=O)NC(C)(C#N)C2CC2)c1NC(=O)c1cc(C(F)(F)F)nn1-c1ncccc1Cl (stereo not drawn) [Compound T1.1.105]	> 80	> 80	> 80	> 80	> 80	> 80	> 80	mortality at 200 ppm [11]: > 80%
Cc1cc(I)cc(C(=O)NC(C)(C#N)C2CC2)c1NC(=O)c1cc(OC(F)F)nn1-c1ncccc1Cl (stereo not drawn)								melting point: 203 to 204 °C
COc1cc(C(=O)Nc2c(C)cc(Cl)cc2C(=O)NC(C)(C#N)C2CC2)n(-c2ncccc2Cl)n1 (stereo not drawn) [Compound T1.1.55]		> 80	> 80	> 80	> 80		> 80	mortality at 12.5 ppm [8]: > 80%
Cc1cc(Cl)cc(C(=O)NC(C)(C#N)C2CCC2)c1NC(=O)c1cc(C(F)(F)F)nn1-c1ncccc1Cl (stereo not drawn) [Compound T2.1.49]		> 80	> 80	> 80			> 80	mortality at 12.5 ppm [8]: > 80%
Cc1cc(Cl)cc(C(=O)NC(C)(C#N)C2CC2)c1NC(=O)c1cc(OCC(F)(F)F)nn1-c1ncccc1Cl (stereo not drawn) [Compound T1.1.53]	> 80	> 80	> 80	> 80	> 80		> 80	
Cc1cc(I)cc(C(=O)NC(C)(C#N)C2CC2)c1NC(=O)c1cc(Br)nn1-c1ncccc1Cl (stereo not drawn) [Compound T1.1.106]		> 80	> 80	> 80	> 80		> 80	
Cc1cc(I)cc(C(=O)NC(C)(C#N)C2CC2)c1NC(=O)c1cc(Cl)nn1-c1ncccc1Cl (stereo not drawn) [Compound T1.1.107]	> 80	> 80	> 80	> 80	> 80	> 80		mortality at 200 ppm ([12]; Tetranychus urticae, foliar, 192 h): 80%; activity in words ([12]; in vivo): good activity
Cc1cc(I)cc(C(=O)NC(C)(C#N)C2CC2)c1NC(=O)c1cc(C(F)F)nn1-c1ncccc1Cl (stereo not drawn) [Compound T1.1.108]		> 80	> 80	> 80		> 80	> 80	
